Laboratory results taken from ChEMBL document CHEMBL1909046, “DrugMatrix in vitro pharmacology data”.

How the values were obtained:
[1] = DRUGMATRIX: Glutamate, Kainate radioligand binding (ligand: [3H] Kainic acid); assay type: cell membranes, Rattus norvegicus, Wistar, Brain, Membrane; details: Not Active = under 50% inhibition at 10 µM
[2] = DRUGMATRIX: Tumor Necrosis Factor (TNF), Non-Selective radioligand binding (ligand: [125I] TNF-alpha); assay type: cell membranes, Membrane; details: u-937; Not Active = under 50% inhibition at 10 µM
[3] = DRUGMATRIX: Glutamate, NMDA, Phencyclidine radioligand binding (ligand: [3H] TCP); assay type: cell membranes, Rattus norvegicus, Wistar, Cerebral cortex, Membrane; details: Not Active = under 50% inhibition at 10 µM
[4] = DRUGMATRIX: Platelet-Derived Growth Factor (PDGF) radioligand binding (ligand: [125I] PDGF); assay type: cell-based; details: nih3t3; Not Active = under 50% inhibition at 10 µM
[5] = DRUGMATRIX: Sodium/nucleoside co-transporter radioligand binding (ligand: nitrobenzylthioinosine); assay type: cell membranes, Cavia porcellus, Dunkin-Hartley, Cerebral cortex, Membrane; details: Not Active = under 50% inhibition at 10 µM
Vasopressin V1a receptor = Vasopressin V1a receptor (Homo sapiens, UniProt P37288); assay type: cell membranes, Membrane; details: hek293; note: in other assays of this panel Not Active means under 50% inhibition at 10 µM
Endothelin-1 receptor = target: T1, Endothelin-1 receptor (Homo sapiens, UniProt P25101); assay type: cell membranes, Membrane; details: cho-k1; note: in other assays of this panel Not Active means under 50% inhibition at 10 µM
T1 sequence (P25101 whole entry): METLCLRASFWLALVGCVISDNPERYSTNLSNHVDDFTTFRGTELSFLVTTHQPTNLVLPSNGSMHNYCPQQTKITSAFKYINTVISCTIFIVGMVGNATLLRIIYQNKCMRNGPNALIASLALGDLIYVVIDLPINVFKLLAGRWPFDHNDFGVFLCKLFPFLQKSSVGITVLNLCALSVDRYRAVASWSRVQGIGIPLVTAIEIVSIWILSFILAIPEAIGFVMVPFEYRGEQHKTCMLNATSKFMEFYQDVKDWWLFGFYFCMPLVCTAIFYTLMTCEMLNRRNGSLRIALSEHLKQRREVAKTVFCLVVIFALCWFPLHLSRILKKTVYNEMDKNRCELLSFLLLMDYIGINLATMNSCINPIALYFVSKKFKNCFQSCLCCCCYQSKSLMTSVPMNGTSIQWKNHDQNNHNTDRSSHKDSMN

[6] = target: T2, C-X-C chemokine receptor type 1 (Homo sapiens, UniProt P25024); note: in other assays of this panel Not Active means under 50% inhibition at 10 µM
T2 sequence (P25024 whole entry): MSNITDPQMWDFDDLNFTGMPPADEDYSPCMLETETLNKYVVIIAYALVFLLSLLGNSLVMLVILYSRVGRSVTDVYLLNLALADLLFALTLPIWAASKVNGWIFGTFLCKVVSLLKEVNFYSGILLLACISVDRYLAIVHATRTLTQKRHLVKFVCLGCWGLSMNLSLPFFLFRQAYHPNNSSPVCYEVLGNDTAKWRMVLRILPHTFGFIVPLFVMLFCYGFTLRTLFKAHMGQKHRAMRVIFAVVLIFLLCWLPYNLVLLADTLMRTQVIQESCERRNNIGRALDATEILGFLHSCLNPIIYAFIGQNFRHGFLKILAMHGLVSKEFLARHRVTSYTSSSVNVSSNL

[7] = target: T3, Receptor-type tyrosine-protein phosphatase C (Homo sapiens, UniProt P08575); design: species or system Escherichia coli;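 note: inhibition of CD45 enzyme activity measured using DiFMUP as substrate; in other assays of this panel Not Active means under 50% inhibition at 10 µM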
T3 sequence (P08575 whole entry): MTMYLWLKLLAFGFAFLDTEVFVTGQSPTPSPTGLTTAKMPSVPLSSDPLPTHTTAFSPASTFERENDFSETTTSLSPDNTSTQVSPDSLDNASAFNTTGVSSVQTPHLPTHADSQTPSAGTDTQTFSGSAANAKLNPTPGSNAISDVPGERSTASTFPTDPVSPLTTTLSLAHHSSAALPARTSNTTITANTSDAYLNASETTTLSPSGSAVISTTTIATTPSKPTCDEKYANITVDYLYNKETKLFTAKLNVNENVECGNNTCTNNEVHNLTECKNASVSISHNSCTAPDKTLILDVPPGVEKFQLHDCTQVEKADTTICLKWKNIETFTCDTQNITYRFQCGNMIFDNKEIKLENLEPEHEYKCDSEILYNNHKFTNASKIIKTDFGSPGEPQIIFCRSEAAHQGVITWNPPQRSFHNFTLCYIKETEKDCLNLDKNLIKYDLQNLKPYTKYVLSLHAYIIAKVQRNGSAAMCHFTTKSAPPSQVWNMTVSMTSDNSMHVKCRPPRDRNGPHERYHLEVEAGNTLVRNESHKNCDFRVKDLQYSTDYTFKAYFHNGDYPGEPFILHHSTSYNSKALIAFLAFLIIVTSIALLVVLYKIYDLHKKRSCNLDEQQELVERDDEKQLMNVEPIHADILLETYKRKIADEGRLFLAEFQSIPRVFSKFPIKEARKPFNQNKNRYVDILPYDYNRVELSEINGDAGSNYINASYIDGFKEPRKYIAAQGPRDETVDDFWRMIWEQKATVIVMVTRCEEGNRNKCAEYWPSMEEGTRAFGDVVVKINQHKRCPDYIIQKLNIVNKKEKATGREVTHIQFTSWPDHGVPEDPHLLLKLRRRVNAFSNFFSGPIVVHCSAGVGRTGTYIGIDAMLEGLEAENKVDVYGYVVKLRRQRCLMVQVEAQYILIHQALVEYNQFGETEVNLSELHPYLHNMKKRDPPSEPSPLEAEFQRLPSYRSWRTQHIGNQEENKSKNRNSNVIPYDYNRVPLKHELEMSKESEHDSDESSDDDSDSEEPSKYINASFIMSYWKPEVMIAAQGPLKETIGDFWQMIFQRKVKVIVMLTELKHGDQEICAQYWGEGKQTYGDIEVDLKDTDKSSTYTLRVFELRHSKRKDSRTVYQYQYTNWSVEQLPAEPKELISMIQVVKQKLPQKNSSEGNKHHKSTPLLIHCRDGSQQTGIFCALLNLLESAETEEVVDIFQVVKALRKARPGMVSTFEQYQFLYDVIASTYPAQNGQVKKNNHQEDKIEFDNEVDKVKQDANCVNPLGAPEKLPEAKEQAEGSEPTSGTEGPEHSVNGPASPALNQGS

Chain of Vasopressin V1a receptor (P37288 whole entry): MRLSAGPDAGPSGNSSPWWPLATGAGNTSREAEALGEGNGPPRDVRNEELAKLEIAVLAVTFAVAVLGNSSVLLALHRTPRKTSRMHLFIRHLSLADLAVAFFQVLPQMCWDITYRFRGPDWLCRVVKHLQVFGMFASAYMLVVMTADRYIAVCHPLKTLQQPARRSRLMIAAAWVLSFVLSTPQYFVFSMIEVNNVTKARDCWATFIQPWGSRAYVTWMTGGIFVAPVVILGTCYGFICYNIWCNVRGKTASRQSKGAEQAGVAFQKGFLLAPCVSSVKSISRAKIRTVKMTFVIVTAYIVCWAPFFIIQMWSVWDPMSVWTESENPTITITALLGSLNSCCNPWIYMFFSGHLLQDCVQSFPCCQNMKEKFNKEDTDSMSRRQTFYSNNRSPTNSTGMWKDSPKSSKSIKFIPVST

COc1ccccc1OCCNCC(O)COc1cccc2[nH]c3ccccc3c12 (configuration not stated) [CARVEDILOL]
Not Active: IC50 [1] | Ki [1] | IC50 [2] | Ki [2] | IC50 [3] | Ki [3] | IC50 [4] | Ki [4] | IC50 [5] | Ki [5] | IC50 (Vasopressin V1a receptor) | IC50 (Endothelin-1 receptor) | IC50 [6] | IC50 [7]

NC(N)=Nc1nc(CSCCC(N)=NS(N)(=O)=O)cs1 [FAMOTIDINE]
Not Active: IC50 [1] | Ki [1] | IC50 [2] | Ki [2] | IC50 [3] | Ki [3] | IC50 [4] | Ki [4] | IC50 [5] | Ki [5] | IC50 (Vasopressin V1a receptor) | IC50 (Endothelin-1 receptor) | IC50 [6] | IC50 [7]

COc1ccc(C[C@H](N)C(=O)N[C@H]2[C@@H](O)[C@H](n3cnc4c(N(C)C)ncnc43)O[C@@H]2CO)cc1 [PUROMYCIN]
Not Active: IC50 [1] | Ki [1] | IC50 [2] | Ki [2] | IC50 [3] | Ki [3] | IC50 [4] | Ki [4] | IC50 [5] | Ki [5] | IC50 (Vasopressin V1a receptor) | IC50 (Endothelin-1 receptor) | IC50 [6] | IC50 [7]
